The text below walks through data of patent US6605601B2, “A1 adenosine receptor antagonists” (Biogen, Inc., priority 2000, dated 2003).

The target of the assay is T1, rat A1 adenosine receptor (Rattus norvegicus, UniProt P25099).
T1 construct: Membranes were prepared from rat cerebral cortex isolated from freshly euthanized rats; from tissue; host or cells: rat cerebral cortex
T1 sequence (P25099 1-326): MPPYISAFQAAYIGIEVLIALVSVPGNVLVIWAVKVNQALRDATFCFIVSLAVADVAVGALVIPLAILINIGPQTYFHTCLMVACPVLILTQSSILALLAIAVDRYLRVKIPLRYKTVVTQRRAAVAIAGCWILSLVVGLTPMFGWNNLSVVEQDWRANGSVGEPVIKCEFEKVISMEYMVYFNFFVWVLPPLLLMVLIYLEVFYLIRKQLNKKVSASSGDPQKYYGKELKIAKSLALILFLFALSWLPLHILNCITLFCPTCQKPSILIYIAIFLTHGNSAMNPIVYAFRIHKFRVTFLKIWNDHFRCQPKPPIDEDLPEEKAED
The experiment in a line: Radioligand ([3H]DPCPX) competition binding assay on rat A1 adenosine receptor (rat cerebral cortex membranes). To be noted: for Ki: [3H]DPCPX 1 nM, Cheng-Prusoff from IC50; for % specific radioligand binding remaining at 1 µM: 2.5 h, % of total specific radioligand binding remaining at 1 μM of competing compound. As to the method:
For some of these compounds, the Ki values for rat and human adenosine A1 receptors were determined according to the following binding assay protocol.
Rat A1 Receptor: Membranes were prepared from rat cerebral cortex isolated from freshly euthanized rats. Tissues were homogenized in buffer A (10 mM EDTA, 10 mM Na-HEPES, pH 7.4) supplemented with protease inhibitors (10 μg/ml benzamidine, 100 μM PMSF, and 2 μg/ml each of aprotinin, pepstatin and leupeptin), and centrifuged at 20,000×g for 20 min. Pellets were resuspended and washed twice with buffer HE (10 mM Na-HEPES, 1 mM EDTA, pH 7.4, plus protease inhibitors). Final pellets were resuspended in buffer HE, supplemented with 10% (w/v) sucrose and protease inhibitors, and frozen in aliquots at −80° C. Protein concentrations were measured using BCA protein assay kit (Pierce).
Membranes (50 μg membrane protein for rat A1ARs, and 25 μg of CHO-K1 membrane protein for human A1ARs), radioligands and varying concentrations of competing ligands were incubated in triplicates in 0.1 ml buffer HE plus 2 units/ml adenosine deaminase for 2.5 h at 21° C. Radioligand [^3H]DPCPX (112 Ci/mmol from NEN, final concentration: 1 nM) was used for competition binding assays on A1ARs. Nonspecific binding was measured in the presence of 10 μM BG9719. Binding assays were terminated by filtration over Whatman GF/C glass fiber filters using a BRANDEL cell harvester. Filters were rinsed three times with 3-4 ml ice-cold 10 mM Tris-HCl, pH 7.4 and 5 mM MgCl2 at 4° C. Filter paper was transferred to a vial, and 3 ml of scintillation cocktail ScintiVerseII (Fisher)was added. Radioactivity was counted in a Wallac β-counter.
For K1 Determinations: Competition binding data were fit to a single-site binding model and plotted using Prizm GraphPad.
For % Binding: For one-point binding assays, data were presented as % of total specific binding at 1 μM of competing compound: % of total =100* (Specific binding with 1 μM of competing compound/total specific binding). % binding represents the amount of bound radioligand remaining in the presence of 1 μM of competing antagonist.

The Ki is the equilibrium dissociation constant of an inhibitor or competing ligand from its target. Read a high Ki as lower affinity. As to `CCCN1C(=O)N2C[C@@H](C(C)C)N=C2c2[nH]c(C34CCC(O)(CC3)CC4)nc21` [Compound 1, 2-(4-Hydroxy-bicyclo[2.2.2]oct-1-yl)-7-isopropyl-4-propyl-1,4,6,7-tetrahydro-1,3,4,5a,8-pentaaza-as-indacen-5-one], the Ki came out at 4.4 nM.

`CCCN1C(=O)N2C[C@@H](CC)N=C2c2[nH]c(C34CCC(O)(CC3)CC4)nc21` [Compound 2, 7-Ethyl-2-(4-hydroxy-bicyclo[2.2.2]oct-1-yl)-4-propyl-1,4,6,7-tetrahydro-1,3,4,5a,8-pentaaza-as-indacen-5-one] came in with a Ki of 5.75 nM.

Regarding `CCCN1C(=O)N2C[C@@H](CC)N=C2c2[nH]c(C34CCC(CCC(=O)O)(CC3)CC4)nc21` [Compound 3, 3-[4-(7-Ethyl-5-oxo-4-propyl-4,5,6,7-tetrahydro-1H-1,3,4,5a,8-pentaaza-as-indacen-2-yl)-bicyclo[2.2.2]oct-1-yl]-propionic acid], the Ki stood at 8.38 nM.

Consider `CCCN1C(=O)N2C[C@@H](C)N=C2c2[nH]c(C34CCC(O)(CC3)CC4)nc21` [Compound 4, 2-(4-Hydroxy-bicyclo[2.2.2]oct-1-yl)-7-methyl-4-propyl-1,4,6,7-tetrahydro-1,3,4,5a,8-pentaaza-as-indacen-5-one], for which the Ki was found to be 9.92 nM.

`CCCN1C(=O)N2C[C@@H](C(C)C)N=C2c2[nH]c(C34CCC(CCC(=O)O)(CC3)CC4)nc21` [Compound 5, 3-[4-(7-Isopropyl-5-oxo-4-propyl-4,5,6,7-tetrahydro-1H-1,3,4,5a,8-pentaaza-as-indacen-2-yl)-bicyclo[2.2.2]oct-1-yl]-propionic acid]: the % specific radioligand binding remaining at 1 µM is 1.9% and the affinity, expressed as Ki, was 10.5 nM.

`CCCN1C(=O)N2CCN=C2c2[nH]c(C34CCC(C(=O)O)(CC3)CC4)nc21` [Compound 6, 4-(5-Oxo-4-propyl-4,5,6,7-tetrahydro-1H-1,3,4,5a,8-pentaaza-as-indacen-2-yl)-bicyclo[2.2.2]octane-l-carboxylic acid] returned a % specific radioligand binding remaining at 1 µM of 2.6%.

In the case of `CCCN1C(=O)N2C[C@@H](C)N=C2c2[nH]c(C34CCC(CCC(=O)O)(CC3)CC4)nc21` [Compound 7], the % specific radioligand binding remaining at 1 µM is 2.5% and the Ki worked out at 13.7 nM.

The molecule `CCCN1C(=O)N2C[C@@H](C(C)CC)N=C2c2[nH]c(C34CCC(O)(CC3)CC4)nc21` (stereo partly shown) [Compound 8] came in with a % specific radioligand binding remaining at 1 µM of 1% and a Ki of 14.1 nM.

`CCCN1C(=O)N2C[C@@H](CC)N=C2c2[nH]c(C34CCC(CC3)CC4)nc21` [Compound 9]: the % specific radioligand binding remaining at 1 µM is 0.1% and the Ki is 26.7 nM.

For `CCCN1C(=O)N2C[C@@H](CC)N=C2c2[nH]c(C34CCC(C(=O)O)(CC3)CC4)nc21` [Compound 10], the % specific radioligand binding remaining at 1 µM turned out to be 6.2% and the Ki turned out to be 40.2 nM.

In turn, `CCC[C@@H]1CN2C(=O)N(CCC)c3nc(C45CCC(O)(CC4)CC5)[nH]c3C2=N1` [Compound 11] yielded a % specific radioligand binding remaining at 1 µM of 3.7% and an inhibitory constant (Ki) of 43.2 nM.

On to `CCCN1C(=O)N2C(=NC[C@@H]2C)c2[nH]c(C34CCC(O)(CC3)CC4)nc21` [Compound 12], for which the % specific radioligand binding remaining at 1 µM worked out at 8.6% and the inhibitory constant (Ki) turned out to be 51.3 nM.

Molecule `CCCN1C(=O)N2C[C@@H](c3ccccc3)N=C2c2[nH]c(C34CCC(O)(CC3)CC4)nc21` [Compound 13] displayed a Ki of 68.3 nM.

`CCCN1C(=O)N2C(=NC[C@H]2C)c2[nH]c(C34CCC(O)(CC3)CC4)nc21` [Compound 14] came in with a % specific radioligand binding remaining at 1 µM of 7.8% and a Ki of 68.5 nM.

Regarding `CCCN1C(=O)N2C[C@H](C(C)CC)N=C2c2[nH]c(C34CCC(O)(CC3)CC4)nc21` (stereo partly shown) [Compound 15], the % specific radioligand binding remaining at 1 µM came out at 7.7% and the affinity, expressed as Ki, was 93 nM.

`CCCN1C(=O)N2C[C@@H](C(C)(C)C)N=C2c2[nH]c(C34CCC(O)(CC3)CC4)nc21` [Compound 16]: the Ki turned out to be 155 nM.

The molecule `CCCN1C(=O)N2C[C@@H](CC(C)C)N=C2c2[nH]c(C34CCC(O)(CC3)CC4)nc21` [Compound 17] displayed a Ki of 167 nM.

`CCCN1C(=O)N2C[C@@H](Cc3ccccc3)N=C2c2[nH]c(C34CCC(O)(CC3)CC4)nc21` [Compound 18] displayed a Ki of 708 nM.

On to `CCCC[C@@H]1CN2C(=O)N(CCC)c3nc(C45CCC(O)(CC4)CC5)[nH]c3C2=N1` [Compound 19], for which the % specific radioligand binding remaining at 1 µM came to 18.1%.

As for `CCCN1C(=O)N2CCCN=C2c2[nH]c(C34CCC(O)(CC3)CC4)nc21` [Compound 20], the % specific radioligand binding remaining at 1 µM was found to be 52.7%.

For `CCCN1C(=O)N2CCN=C2c2[nH]c(C34CCC(O)(CC3)CC4)nc21` [Compound 21], the % specific radioligand binding remaining at 1 µM was determined as 12.2%.

In the case of `CCCN1C(=O)N2C[C@@H](C)N=C2c2[nH]c(C34CCC(C(=O)O)(CC3)CC4)nc21` [Compound 22], the % specific radioligand binding remaining at 1 µM came out at 24%.

For `CCC[C@@H]1CN2C(=O)N(CCC)c3nc(C45CCC(C(=O)O)(CC4)CC5)[nH]c3C2=N1` [Compound 23], the % specific radioligand binding remaining at 1 µM came out at 22.8%.

In turn, `CCCN1C(=O)N2C[C@H](CC)N=C2c2[nH]c(C34CCC(O)(CC3)CC4)nc21` [Compound 24] registered a % specific radioligand binding remaining at 1 µM of 11%.

As to `CCCN1C(=O)N2C[C@@H](C(C)C)N=C2c2[nH]c(C34CCC(C(=O)O)(CC3)CC4)nc21` [Compound 25], the % specific radioligand binding remaining at 1 µM worked out at 46.7%.

On to `CCCN1C(=O)N2C[C@H](CC)N=C2c2[nH]c(C34CCC(C(=O)O)(CC3)CC4)nc21` [Compound 26], for which the % specific radioligand binding remaining at 1 µM is 41.1%.

Molecule `CCCN1C(=O)N2CCCCN=C2c2[nH]c(C34CCC(O)(CC3)CC4)nc21` [Compound 27] showed a % specific radioligand binding remaining at 1 µM of 16.3%.

Consider `CCCN1C(=O)N2C[C@@H](Cc3ccc(O)cc3)N=C2c2[nH]c(C34CCC(O)(CC3)CC4)nc21` [Compound 28], for which the % specific radioligand binding remaining at 1 µM came to 36.3%.

Regarding `CCCN1C(=O)N2CCCN=C2c2[nH]c(C34CCC(C(=O)O)(CC3)CC4)nc21` [Compound 29], the % specific radioligand binding remaining at 1 µM was 81.8%.

Turning to `CCCN1C(=O)N2CCCCN=C2c2[nH]c(C34CCC(C(=O)O)(CC3)CC4)nc21` [Compound 30], the % specific radioligand binding remaining at 1 µM stood at 71%.

`CCCN1C(=O)N2CC[C@@H](C)N=C2c2[nH]c(C34CCC(O)(CC3)CC4)nc21` [Compound 31] came in with a % specific radioligand binding remaining at 1 µM of 40%.
